According to patent US5215999A, “Quinoline derivative and antiulcer agent containing said quinoline derivative” (Otsuka Pharmaceutical Co., Ltd., priority 1990, dated 1993):
Structures can show the parent of a compound that is named as a salt.

Assays:
stomach-acid secretion = experiment: Stomach-acid secretion inhibitory action on rats (histamine-stimulated, perfused stomach); type: in vivo, Wistar-type male rats; details: Rattus norvegicus, iv; 0.3, 1, 3, 10 and 30 mg/kg; histamine dihydrochloride 1 mg/kg/hr; probit method
Procedure: (a) Stomach-Acid Secretion Inhibitory Action on Rats
After each of Wistar-type male rats was let abstain from food for 24 hours, the pylorus thereof was bound while the rat was paralyzed with urethane (1.5 g/kg s.c.), and a stomach perfusion cannula was inserted into the rat stomach. The rat stomach was perfused with a physiological salt solution through an oral catheter. The amount of stomach-acid secretion was measured by titrating the total acidity and pH of the perfusion solution. As an acid secretion stimulant, 1 mg/kg/hr of histamine dihydrochloride was continuously injected through the femoral vein to accelerate the acid secretion. Then, the effects of a variety of compounds were studied.
Each of test compounds as dissolved in dimethylformamide was intravenously administered to the rat in each of dosages of 0.3, 1, 3, 10 and 30 mg/kg through […].
There was calculated an inhibition percentage of acid secretion with respect to acid secretion before administration of each of the test compounds. An ED50 value was calculated from the inhibition percentage with respect to each dosage according to a probit method.

H^+ +K^+ ATPase = target: T1, H^+ +K^+ ATPase (Sus scrofa, UniProt P19156); experiment: H+ + K+ ATPase inhibitory action; type: biochemical; details: pig stomach enzyme, protein 10 μg; pH 7.4, 37° C., 30 minutes
T1 construct: prepared from the stomach of a pig; from tissue; host or cells: pig stomach
Procedure: (c) H^+ +K^+ ATPase Inhibitory Action
H^+ +K^+ ATPase (adenosinetriphosphatase)(protein: 10 μg) prepared from the stomach of a pig was added to a pipes-Tris [2-amino-2-(hydroxymethyl)-1,3-propandiol] buffer (pipes-Tris buffer)(pH 8.1) containing 2 mM piperazine N,N'-bis(2-ethane sulfonic acid). The resultant reaction solution was allowed to stand at a room temperature. Each of the test compounds was dissolved in dimethyl formamide, which was added to the H^+ +K^+ ATPase buffer such that the final concentration was 1%. The resultant reaction solution was reacted at a room temperature for 30 minutes. In the same manner, another reaction solution was prepared. Respectively added to the reaction solutions were 1 ml of a 75 mM pipes-TRIS buffer (pH 7.4) (containing 4 mM MgCl2, 4 mM Na2 ATP and 20 mM KCl) and 1 ml of a 75 mM pipes-Tris buffer (pH7.4) (containing 4 mM MgCl2 and 4 mM Na2 ATP). Thus, two kinds of samples were prepared and reacted at 37° C. for 30 minutes. Added to each of the samples was 0.3 ml of 40% trichloroacetic acid, thus completing the reaction. After the samples were subjected to centrifugal separation (3,000 rpm) for 10 minutes. The supernatant liquids were taken to produce inorganic phosphoric acids, of which amounts were measured according to a Fiske and Subbarow method [J. Biol. Chem. vol. 86,375 (1925)]. The amount of the inorganic phosphoric acid obtained from the pipes-Tris buffer containing no 20 mM KCl was deducted from the amount of the inorganic phosphoric acid obtained from the pipes-Tris buffer containing 20 mM KCl. The difference expressed in terms of unit protein per unit time was defined as an enzyme active value. The inhibition value (%) of each dosage was obtained from the control value and the enzyme active value at each dosage. Based on the inhibition value thus obtained, IC50 (the dosage of each test compound which achieves inhibition of 50%) was obtained.

T1 sequence (P19156 2-1034 limits assumed): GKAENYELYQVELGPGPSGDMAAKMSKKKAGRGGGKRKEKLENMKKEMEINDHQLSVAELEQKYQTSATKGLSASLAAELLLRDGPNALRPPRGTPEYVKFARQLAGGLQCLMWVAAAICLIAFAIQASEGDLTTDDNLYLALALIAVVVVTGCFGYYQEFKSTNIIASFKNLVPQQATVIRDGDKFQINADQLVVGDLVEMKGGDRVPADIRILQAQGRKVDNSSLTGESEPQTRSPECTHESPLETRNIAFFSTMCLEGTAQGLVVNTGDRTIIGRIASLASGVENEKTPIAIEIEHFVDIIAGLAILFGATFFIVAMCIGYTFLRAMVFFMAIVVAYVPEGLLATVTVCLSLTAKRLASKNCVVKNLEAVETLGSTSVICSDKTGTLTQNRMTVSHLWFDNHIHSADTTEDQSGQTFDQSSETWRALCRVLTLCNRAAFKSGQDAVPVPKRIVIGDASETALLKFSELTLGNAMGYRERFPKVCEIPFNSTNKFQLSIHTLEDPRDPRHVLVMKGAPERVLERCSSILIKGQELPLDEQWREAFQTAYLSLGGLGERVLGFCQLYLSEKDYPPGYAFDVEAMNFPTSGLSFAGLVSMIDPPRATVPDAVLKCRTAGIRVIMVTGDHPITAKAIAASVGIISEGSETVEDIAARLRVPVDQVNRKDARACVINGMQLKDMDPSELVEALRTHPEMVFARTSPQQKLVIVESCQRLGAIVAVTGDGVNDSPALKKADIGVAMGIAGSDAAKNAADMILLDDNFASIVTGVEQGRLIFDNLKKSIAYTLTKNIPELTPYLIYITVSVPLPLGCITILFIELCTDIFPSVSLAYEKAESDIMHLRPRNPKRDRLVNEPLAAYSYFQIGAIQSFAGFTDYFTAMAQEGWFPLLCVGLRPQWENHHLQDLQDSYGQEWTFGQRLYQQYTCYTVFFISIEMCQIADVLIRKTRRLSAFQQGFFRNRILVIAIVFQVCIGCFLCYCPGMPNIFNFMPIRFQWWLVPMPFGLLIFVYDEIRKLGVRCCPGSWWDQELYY
T1 sequence (P18434 whole entry partner): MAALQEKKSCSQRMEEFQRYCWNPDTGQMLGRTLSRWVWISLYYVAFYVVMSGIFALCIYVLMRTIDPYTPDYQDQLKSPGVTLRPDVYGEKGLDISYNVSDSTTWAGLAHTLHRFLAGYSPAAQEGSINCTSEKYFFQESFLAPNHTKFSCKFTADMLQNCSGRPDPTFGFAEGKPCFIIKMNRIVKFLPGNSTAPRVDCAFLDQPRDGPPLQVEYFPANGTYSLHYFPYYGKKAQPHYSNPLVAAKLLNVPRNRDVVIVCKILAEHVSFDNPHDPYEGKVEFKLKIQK

SMILES | ED50 (stomach-acid secretion) [mg/kg] | IC50 (H^+ +K^+ ATPase) [µM]
C=CCNC(=O)c1cnc2c(OC)cccc2c1Nc1ccccc1C.Cl [Test Compound 1, N-2-propenyl-8-methoxy-4-[(2-methylphenyl)amino]quinoline-3-carboxamide hydrochloride] | 6.72 | –
C=CCNC(=O)c1cnc2c(OC)cccc2c1Nc1ccccc1CC [Test Compound 2, N-2-propenyl-4-[(2-ethylphenyl)amino]-8-methoxyquinoline-3-carboxamide hydrochloride] | – | 2.2
C=CCNC(=O)c1cnc2c(OC)cccc2c1Nc1ccccc1C(C)C [Test Compound 3, N-2-propenyl-4-[(2-isopropylphenyl)amino]-8-methoxyquinoline-3-carboxamide hydrochloride] | – | 4.9
C=CCNC(=O)c1cnc2c(OC)cccc2c1Nc1ccccc1SCCC [Test Compound 5, N-2-propenyl-8-methoxy-4-[(2-propylthiophenyl)amino]quinoline-3-carboxamide hydrochloride] | – | 1.6
